Experimental data taken from PubChem BioAssay (NCI).
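All cell lines were grown in 96-well plates and treated with compound for 48 hours. TGI: concentration producing complete growth inhibition.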

What was measured:
Assay in all cases: NCI tumour cell line growth inhibition, 48 h
[1] = tested on: 786-0 renal
[2] = tested on: A498 renal
[3] = tested on: A549 NSCLC
[4] = tested on: ACHN renal
[5] = tested on: CCRF-CEM leukemia
[6] = tested on: COLO 205 colon
[7] = tested on: DLD-1 colon
[8] = tested on: EKVX NSCLC
[9] = tested on: HCC-2998 colon
[10] = tested on: HCT-116 colon
[11] = tested on: HCT-15 colon
[12] = tested on: HL-60(TB) leukemia
[13] = tested on: HOP-18 NSCLC
[14] = tested on: HOP-62 NSCLC
[15] = tested on: HOP-92 NSCLC
[16] = tested on: HT29 colon
[17] = tested on: IGROV1 ovarian
[18] = tested on: K-562 leukemia
[19] = tested on: KM12 colon
[20] = tested on: KM20L2 colon
[21] = tested on: LOX IMVI melanoma
[22] = tested on: LXFL 529 NSCLC
[23] = tested on: M14 melanoma
[24] = tested on: M19-MEL melanoma
[25] = tested on: MALME-3M melanoma
[26] = tested on: MOLT-4 leukemia
[27] = tested on: NCI-H226 lung
[28] = tested on: NCI-H23 lung
[29] = tested on: NCI-H460 lung
[30] = tested on: NCI-H522 lung
[31] = tested on: OVCAR-3 ovarian
[32] = tested on: OVCAR-4 ovarian
[33] = tested on: OVCAR-5 ovarian
[34] = tested on: OVCAR-8 ovarian
[35] = tested on: RPMI-8226 leukemia
[36] = tested on: RXF 393 renal
[37] = tested on: RXF-631 renal
[38] = tested on: SF-268 CNS
[39] = tested on: SF-295 CNS
[40] = tested on: SF-539 CNS
[41] = tested on: SK-MEL-2 melanoma
[42] = tested on: SK-MEL-28 melanoma
[43] = tested on: SK-MEL-5 melanoma
[44] = tested on: SK-OV-3 ovarian
[45] = tested on: SN12C renal
[46] = tested on: SNB-19 CNS
[47] = tested on: SNB-75 CNS
[48] = tested on: SNB-78 CNS
[49] = tested on: SW-620 colon
[50] = tested on: TK-10 renal
[51] = tested on: U251 CNS
[52] = tested on: UACC-257 melanoma
[53] = tested on: UACC-62 melanoma
[54] = tested on: UO-31 renal
[55] = tested on: XF 498 CNS

Measured: TGI

Cc1nc2ccccc2c(=O)[nH]1
> 100 µM: all assays above
